{"source": "patent US9579406B2", "about": "“Phospholipid ether analogs as agents for detecting and locating cancer, and methods thereof” (Cellectar, Inc., priority 2004, dated 2017)", "key": {"[1]": {"system": "human PC-3 prostate tumor xenografts", "assay": "Scintigraphy and tissue distribution in SCID mice bearing human PC-3 prostate tumor xenografts", "assay_type": "in vivo", "conditions": "day 5", "from_the_text": "Tumor uptake, however, continued to increase up until day 5 when it reached 18% injected dose per gram of tumor. […] Tumor to background tissue ratios exceeded 4, 6.8, 23, and 9 in blood, liver, muscle, and prostate, respectively, 3 days after injection and continued to improve at 5 and 8 days. Again, although thyroid levels ranged from 26 to 54% injected dose per gram of tissue, these levels are actually quite low and represent an extremely small percentage of the injected dose when the exceedingly small mass of the organ is considered and the data are presented on a percent administered dose per organ basis."}, "[2]": {"assay": "Acute GLP toxicology, single dose, 14 days observation, rabbits", "assay_type": "in vivo", "description": "Formal toxicology studies of NM404 in male rats and rabbits were performed at the Toxicology Research Center of the State University of New York at Buffalo under the direction of Dr. Paul Kostyniak. Drug vehicle and drug product were provided to Dr. Kostyniak by Dr. Raymond Counsell of the University of Michigan for testing as described in the appended synopses of Study 27 and Study 28. […] Human safety studies of unlabeled NM404 were initiated in normal male humans at a mass of 10 times the anticipated imaging dose and about 21 times the anticipated therapy dose. […] This toxicology study was performed under GLP conditions.\nSubsequently, the researchers at the University of Wisconsin initiated a toxicology study of unlabeled NM404 in female rats and rabbits (Study 31 and Study 32) at the Toxicology Research Center at SUNY-Buffalo in order to expand the patient population to be studied in the NSCLC Phase 1 clinical trial. […] Human safety studies of unlabeled NM404 were initiated in normal female humans at a mass of 10 times the initially anticipated imaging dose and about 21 times the anticipated therapy dose. […] This toxicology study was performed under GLP conditions."}, "SCC1 and 6": {"system": "SCC1 and 6", "assay": "Tumor models examined with NM404 (Table 2)", "assay_type": "in vivo, Nude mouse xenograft", "conditions": "Squamous cell carcinoma", "from_the_text": "NM404 has now been evaluated in 27 animal tumor models, including several lung, and it is clear that once the agent enters tumor cells, it reaches a metabolic dead end and becomes trapped. […] NM404 is also retained in spontaneous murine lung tumors (FIG. 13). Using ^125I-labeled NM404, the inventors have been able to image mammary and prostate tumors in mice in excess of 60 days. […] Imaging and tissue distribution studies performed in mouse models aimed at determining the uptake characteristics in a wide variety of tumor models are summarized in Table 2.\nAlthough tumor retention can be explained by a lack of metabolic phospholipase enzymes in the tumor cell membranes, the exact mechanism of tumor cell uptake is unknown. […] The inventors are currently evaluating the selectivity of NM404 in a unique mouse tumor model developed at Wisconsin, wherein both preneoplastic hyperplasias and malignant adenocarcinomas form spontaneously in the mammary gland. […] If this initial observation is validated, then via genomic and or proteomic analysis the inventors may be able to identify a key genetic difference between malignant tumors and their non malignant predecessor cells. This could identify a completely new molecular therapeutic target that may be universal for all types of cancer."}, "lymph node metastases": {"system": "lymph node metastases", "assay": "Scintigraphy in metastatic prostate tumor model", "conditions": "in vivo", "from_the_text": "A variety of tumors including mammary, prostate, squamous cell carcinoma, ovarian, colorectal, and melanoma were successfully visualized by scintigraphy with NM324.\nThis agent has also been evaluated preclinically in a metastatic prostate tumor model in which lymph node metastases were clearly delineated by scintigraphy following intravenous administration of NM404 but, pertinently, the tracer was not retained by uninvolved lymph nodes. Selectivity of NM404 for malignant cells is particularly relevant in prostate cancer as conventional tumor markers such as PSA may also be elevated in a variety of benign disease states including prostatitis and benign prostatic hypertrophy. Furthermore, selective uptake and prolonged retention by tumor cells supports a role for NM404 as a tumor-selective diagnostic and therapeutic agent."}, "[3]": {"system": "mammary and intestinal tumors", "assay": "Apparent therapeutic responses in Apc Min/+ mammary and intestinal tumor mice", "assay_type": "in vivo, Apc^Min/+ mouse", "from_the_text": "During the course of mouse tumor uptake and retention studies with “imaging” doses (15-20 μCi/20 g mouse) of ^125I-labeled NM404, several apparent therapeutic responses have been observed (unpublished results). […] Some of these animals also lost all hair above larger mammary tumors at around 8 days after injection. Moreover, these mice also get intestinal tumors and usually suffer from intestinal bleeding resulting in severe anemia, which renders their feet white. Dr. Moser noted that the feet of these mice had reverted to a pink color around 5 days after a single injection of NM404. […] Another compelling example of tumor regression is illustrated in FIG. 6. Two litter mates each received SCC1 and SCC6 xenografts in their left and right flanks, respectively. One mouse received a single injection of ^125I-NM404 (20 μCi). […] These coincidental findings were reconfirmed in two separate age-matched groups each involving more than 6 mice. Although these observations with ^125I-NM404 are anecdotal at this point, they do seem to strongly indicate potential for radiotherapy applications particularly if labeled with iodine-131. Ongoing quantitative tumor uptake and retention studies in several animal tumor models will also provide sufficient data to initiate a comprehensive dosimetry analysis for this agent in order to estimate its true radiotherapeutic potential."}, "[4]": {"assay": "MIRDOSE radiation dose estimates for the adult female", "parameters": "species or system human (from female rat biodistribution data)", "description": "Dosimetry estimation regarding I-125-NM404 for an adult female patients were calculated based on SPECT imaging data using female non-tumor bearing rats following administration of I-131-NM404. The results are listed below:\nThe dosimetry data were calculated from SPECT imaging in rats using I-131-NM404 and then converted to I-125-NM404. The adrenal gland seems to be the dose-limiting or critical organ for radiation exposure. In the SPECT imaging experiments the thyroids of rats were unblocked. Thus, the thyroid calculations should be evaluated with caution."}}, "data": [{"smiles": "C[N+](C)(C)CCOP(=O)([O-])OCCCCCCCCCCCCCCCCCCc1ccc(I)cc1", "note": "[NM-404, 18-(4-iodophenyl)-octadecylphosphocholine]", "values": [{"measurement": "tumor uptake", "setting": "[1]", "result": "18 % injected dose per gram of tumor"}, {"measurement": "toxic effects", "setting": "[2]; female rabbits, 0.04 mg/kg (Study 32)", "result": "no significant toxic effects were noted"}, {"measurement": "adverse effects", "setting": "[2]; male and female rabbits", "result": "no adverse effects attributable to the test article were noted"}, {"measurement": "toxic effects", "setting": "[2]; male rabbits, 4 mg/kg (Study 28)", "result": "no significant toxic effects were noted"}, {"measurement": "acute toxicity", "setting": "[2]; unlabeled, 1200 times the anticipated imaging mass dose", "result": "no acute toxicities were found"}, {"measurement": "NM404 Tumor Localization", "setting": "SCC1 and 6", "result": "Yes (Localization defined as >5% injected dose per gram tumor basis based on tissue distribution data)"}, {"measurement": "localization in lymph node metastases", "setting": "lymph node metastases", "result": "clearly delineated by scintigraphy in a metastatic prostate tumor model without retention in uninvolved lymph nodes"}]}, {"smiles": "C[N+](C)(C)CCOP(=O)([O-])OCCCCCCCCCCCCCCCCCCc1ccc([125I])cc1", "note": "[Compound I-125-NM404]", "values": [{"measurement": "survival versus untreated litter mates", "setting": "[3]; after 21 days, both intestinal models", "result": "easily outlived their untreated litter mates"}, {"measurement": "intestinal tumors remaining at dissection", "setting": "[3]; single injection", "result": "only a very few, if any"}, {"measurement": "mammary tumor growth", "setting": "[3]; single iv injection, 15-20 μCi/20 g mouse", "result": "tumor growth remains static"}, {"measurement": "activity for 3 rads to Ovaries", "setting": "[4]", "result": 20, "unit": "mCi"}, {"measurement": "activity for 5 rads to Adrenals", "setting": "[4]", "result": 18, "unit": "mCi"}, {"measurement": "activity for 5 rads to Thyroids", "setting": "[4]", "result": 4.5, "unit": "mCi"}]}]}
